Measured values taken from patent US5196410A, “Transdermal flux enhancing compositions” (priority 1991, dated 1993).
≈ marks a conversion by molar mass, not a printed value. Counter-ions that a name gives are not always drawn. Like-named read-outs stand apart in the source and are kept apart here.

Assays:
[1] = format: in vitro ADME, porcine; conditions: 32° C.
Protocol: Samples were removed periodically from the receiver side of the diffusion cell, mixed with a Z0 scintillation cocktail (Scintisol, Isolabs, Inc., Akron, OH) and counted for several minutes in a liquid scintillation counter (Model Mark III-6881, Tracor Analytical, Elk Grove Village, IL). Following an initial lag time of about 6 hours, the amount of
salicylic acid appearing in the receiver side was linear with time for the duration of the experiment (routinely 24 to 48 hours). […] This value, when divided by the specific acitivity of salicyclic acid in the saturated solution (approximately 300 dpm/mg) and the area of exposed skin (0.2 cm^2), yielded the flux (mg/cm^2/ hr). Samples removed from the donor side at the beginning and end of the experiment contained, within error, the same amount of salicylic acid. Thus, constant concentration of the permeant was maintained on the donor side throughout the experiment.

[2] = Saturation concentration of drug in vehicle
[3] = Infrared spectra of fatty acid treated porcine stratum corneum; conditions: C-H antisymmetric stretching, stratum corneum treated with […] fatty acid in ethanol, 30% (w/w) water
Protocol: (§1) Stratum corneum sheets were prepared from porcine skin by trypsin treatment. Thus, full thickness porcine skin samples were dermatomed to 350 μm thickness and spread, stratum corneum side up, on filter paper saturated with 0.5% crude trypsin in phosphate buffered saline at pH 7.4 (Sorensen's buffer). After several hours at 37° C. the stratum corneum was peeled away, washed in soybean trypsin inhibitor, water and air dried. Samples were stored desiccated at room temperature until used. Prior to use, dry skin samples of known weight were incubated for two hours in an 0.15M solution of the appropriate fatty acid in ethanol, the samples were then washed for ten seconds in ethanol, spread on wire mesh, dried over a desiccant and the dry sample reweighed. The stratum corneum samples were then held for several days in a chamber at 22° C., 95% relative humidity, during which the stratum corneum samples equilibrated to a water content of 30% (w/w).
Infrared spectra were obtained with a Fourier Transform Infrared Spectrometer^4 (FTIR) equipped with a liquid nitrogen cooled mercury-cadmium telluride detector. In order to prevent water loss, hydrated samples were sealed between zinc sulfide windows while maintained at 22° C., 95% relative humidity. Sealed samples were placed in the spectrometer where an average of 127 scans were obtained in about six minutes for each of the fatty acid treatments. The digitized data were transferred to a computer (Apple IIe) for determination of frequency and bandwidth of the C--H antisymmetric stretching absorbance. Due to the digital nature of the FTIR instrument, absorbance and frequency data exist only in discrete increments. With the instrument used, the exact value of any frequency point could only be determined with a precision not greater than 2.7 cm^-1. The peak frequency was estimated with much greater precision, however, using a center of gravity algorithm for digitized data reported by Cameron et al., Applied Spectr., 36 245-250 (1982).

[4] = Differential scanning calorimetry of fatty acid treated porcine stratum corneum; conditions: stratum corneum treated with […] fatty acid in ethanol, 30% (w/w) water
Protocol: as §1
The differential scanning calorimeter^5 was used at a scan rate of 0.75° C./minute. Duplicate samples from each of the above FTIR experiments were combined for DSC measurements. Alternately, stratum corneum samples of known weight (about 20 mg) were treated with each fatty acid in the same manner described above. Treated samples were hydrated for several days at 95% R.H., 22° C. and reweighed.

[5] = cited from earlier work

For `O=C(O)c1ccccc1O` [Salicylic acid, salicylic acid], the initial lag time ([1]; salicylic acid in receiver) was “about 6 hours”, the “Flux of Salicylic Acid” value ([1]; saturated salicylic acid in ethanol, no fatty acid (ethanol control)) was 1.31 mg/cm^2 /hr and the solubility ([2]; ethanol, organic solvent or mixture) was 310 mg/mL (≈ 2240 mM).

`COc1cc2nc(N3CCN(C(=O)C4COc5ccccc5O4)CC3)nc(N)c2cc1OC` (stereo not shown) [doxazosin mesylate] gave a solubility ([2]; 30% ethanol/acetate buffer, pH 5, organic solvent or mixture) of 8.95 mg/mL.

With `CCCCCCCCCCCCCCCCCC(=O)O` [Stearic, stearic acid] the “Peak IR Frequency” value [3] was 2918.0 ± 0.4 cm⁻¹, the “Peak IR Frequency” value ([3]; listed as stearic acid) was 2918 to 2919 cm⁻¹ and the “DSC Tm (temperature of the transition maximum)” value [4] was 62.5 ± 1.0 °C. The “Flux of Salicylic Acid” value ([1]; saturated salicylic acid in ethanol with […] of the fatty acid) was 1.21 mg/cm^2 /hr.

In the case of `CCCCCCCCCCCCN1CCCCCC1=O` [Azone, 1-dodecylazacycloheptan-2-one], the “ability to enhance percutaneous penetration” value ([5]; Stoughton, Arch. Derm.) is given as “ability to enhance percutaneous penetration” and the “enhancement of dermal penetration” value ([5]; flurbiprofen in propylene glycol and other solvents) is given as “enhance dermal penetration”.
